Data reported in patent publication US5589496A, “Fused benzeneoxyacetic acid derivatives which have PGI2 receptor agonist activity” (Ono Pharmaceutical Co., Ltd., priority 1991, dated 1996).

Tests used:
[1] = biological target: T1, PGI2 receptor (Homo sapiens, UniProt P43119); experiment: Inhibitory activity on binding of ^3 H-iloprost to PGI2 receptor on human blood platelet membrane fraction; conditions: 10 nM [^3H]-iloprost, human blood platelet membrane fraction (0.3 mg protein), 24° C., 30 min, pH 7.4
T1 construct: human blood platelet membrane fraction (0.3 mg protein) was added; from tissue; host or cells: human blood platelets (membrane fraction)
T1 sequence (P43119 whole entry): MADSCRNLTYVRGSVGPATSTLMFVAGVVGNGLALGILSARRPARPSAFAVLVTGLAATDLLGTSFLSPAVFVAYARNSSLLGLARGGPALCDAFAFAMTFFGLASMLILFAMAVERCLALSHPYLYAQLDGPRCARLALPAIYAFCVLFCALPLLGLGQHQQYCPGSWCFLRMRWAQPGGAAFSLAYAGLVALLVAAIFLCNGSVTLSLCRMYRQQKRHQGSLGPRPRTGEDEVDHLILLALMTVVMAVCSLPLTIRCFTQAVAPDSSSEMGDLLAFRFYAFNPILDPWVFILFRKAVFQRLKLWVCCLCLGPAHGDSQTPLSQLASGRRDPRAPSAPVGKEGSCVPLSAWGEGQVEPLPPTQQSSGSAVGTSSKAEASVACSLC
Protocol: i) Inhibitory activity on binding of ^3 H-iloprost to PGI2 receptor on human blood platelet membrane fraction Method 50 mM Tris-HCl buffer (pH 7.4) containing 15 mM MgCl2, 5 mM EDTA and 10 nM [^3 H]-iloprost were used as reaction medium. To 0.2 ml of the reaction medium, human blood platelet membrane fraction (0.3 mg protein) was added with or without a test compound. The mixture was incubated at 24° C. for 30 min. After incubation, 4 ml of ice-cold 10 mM Tris-HCl buffer (pH 7.4) was added to the reaction mixture, and filtered through Whatman GF/B glass fiber filter, and washed 4 times with 4 ml of ice-cold 10 mM Tris-HCl buffer (pH 7.4) to separate bound and free [^3 H]-iloprost. After washing, the filter was dried and radioactivity was counted. Non-specific binding was obtained by performing parallel binding experiments in the presence of 10 μM non-labelled iloprost. Specific binding was calculated by subtracting the non-specific binding from the total binding. The inhibitory effect of test compound was calculated from the following equation. The percentage of inhibition (%)=100-(B1 /B0 ×100) B1 : specific [^3 H]-iloprost binding in presence of test compound B0 : specific [^3 H]-iloprost binding in absence of test compound

[2] = system: human blood platelet aggregation; experiment: Inhibitory effect on human blood platelet aggregation (ADP-induced, platelet-rich plasma); format: cell-based; conditions: human PRP (5×10^5 platelets/mm^3), test compound 1 min prior to ADP (4 μm)
Protocol: ii) Inhibitory effect on human blood platelet aggregation
Platelet-rich plasma (PRP) was prepared from human blood (5×10^5 platelets/mm^3), and a test compound was added to PRP 1 min prior to the addition of ADP (4 μm). The aggregation was monitored using a platelet aggregometer (NBS HEMA TRACER 601, Niko Bioscience, Japan).

SMILES | IC50 [1] | IC50 [2]
O=C(O)COc1cccc2c1CCC(CCSc1nc(-c3ccccc3)c(-c3ccccc3)[nH]1)C2 (centres unmarked) [4(b), [2-(2-(4,5-Diphenylimidazol-2-ylthio)ethyl)-1,2,3,4-tetrahydronaphthalen-5-yloxy] acetic acid] | 5 µM | 11 µM
O=C(O)COc1cccc2c1CCC(Cn1ccc(C(c3ccccc3)c3ccccc3)n1)C2 (centres unmarked) [2(h), [2-(3-Diphenylmethylpyrazol-1-yl)methyl-1,2,3,4-tetrahydronaphthalen-5-yloxy] acetic acid] | 0.36 µM | 
O=C(O)COc1cccc2c1CCC(Cc1coc(C(c3ccccc3)c3ccccc3)n1)C2 (centres unmarked) [Example 12, [2-(2-Diphenylmethyloxazol-4-yl)methyl-1,2,3,4-tetrahydronaphthalen-5-yloxy] acetic acid] | 0.32 µM | 1 µM
O=C(O)COc1cccc2c1CCC(Cn1cc(C(c3ccccc3)c3cccnc3)cn1)C2 (centres unmarked) [2(i), [2-(4-((3-pyridyl)phenylmethyl)pyrazol-1-yl)methyl-1,2,3,4-tetrahydronaphthalen-5-yloxy] acetic acid] | 0.21 µM | 0.15 µM
O=C(O)COc1cccc2c1CCCC2CCn1cc(C(c2ccccc2)c2ccccc2)cn1 (centres unmarked) [6(c), [1-(2-(4-Diphenylmethylpyrazol-1-yl)ethyl)-1,2,3,4-tetrahydronaphthalen-5-yloxy] acetic acid] | 0.058 µM | 
O=C(O)COc1cccc2c1CCCC2CCn1cnc(-c2ccccc2)c1-c1ccccc1 (centres unmarked) [Example 6, [1-[2-(4,5-Diphenylimidazol-1-yl)ethyl]-1,2,3,4-tetrahydronaphthalen-5-yloxy] acetic acid] | 5 µM | 
O=C(O)COc1cccc2c1CCCC2CCn1c(-c2ccccc2)c(-c2ccccc2)n(-c2ccccc2)c1=O (centres unmarked) [6(b), [1-(2-(1,4,5-Triphenyl-2-oxo-2,3-dihydroimidazol-3-yl)ethyl)-1,2,3,4-tetrahydronaphthalen-5-yloxy] acetic acid] | 4 µM | 16 µM
O=C(O)COc1cccc2c1CCC(CCn1cc(C(c3ccccc3)c3ccccc3)cn1)C2 (centres unmarked) [4(f), [2-(2-(4-Diphenylmethylpyrazol-1-yl)ethyl)-1,2,3,4-tetrahydronaphthalen-5-yloxy] acetic acid] | 1.4 µM | 
O=C(O)COc1cccc2c1CCC(Cn1cc(C(c3ccccc3)c3ccccc3)cn1)=C2 [Example 22, [2-(4-(Diphenylmethyl)pyrazol-1-yl)methyl-3,4-dihydronaphthalen-5-yloxy] acetic acid] | 0.018 µM | 0.093 µM
O=C(O)COc1cccc2c1CCC(CSc1nc(-c3ccccc3)c(-c3ccccc3)[nH]1)C2 (centres unmarked) [2(c), [2-(4,5-Diphenylimidazol-2-ylthio)methyl-1,2,3,4-tetrahydronaphthalen-5-yloxy] acetic acid] | 3.9 µM | 12 µM
O=C(O)COc1cccc2c1CCCC2CCc1nc(C(c2ccccc2)c2ccccc2)no1 (centres unmarked) [Example 8, [1-[2-(3-Diphenylmethyl-1,2,4-oxadiazol-5-yl)ethyl]-1,2,3,4-tetrahydronaphthalen-5-yloxy] acetic acid] | 2 µM | 
O=C(O)COc1cccc2c1CCC(Cn1cc(C(c3ccccc3)n3ccnc3)cn1)C2 (centres unmarked) [Example 24, [2-(4-((1-Imidazolyl)phenylmethyl)pyrazol-1-yl)methyl-1,2,3,4-tetrahydronaphthalen-5-yloxy] acetic acid] | 8 µM | 
O=C(O)COc1cccc2c1CCC(Cn1cc(C(c3ccccc3)c3cccnc3)cn1)=C2 (centres unmarked) [22(a), [2-(4-((3-Pyridyl)phenylmethyl)pyrazol-1-yl)methyl-3,4-dihydronaphthalen-5-yloxy] acetic acid] | 0.16 µM | 
O=C(O)COc1cccc2c1CCC(CCOc1nc(-c3ccccc3)c(-c3ccccc3)n1-c1ccccc1)C2 (centres unmarked) [4(c), [2-(2-(1,4,5-Triphenylimidazol-2-yloxy)ethyl)-1,2,3,4-tetrahydronaphthalen-5-yloxy] acetic acid] | 8.2 µM | 
O=C(O)COc1cccc2c1CCC(Cn1c(-c3ccccc3)c(-c3ccccc3)n(-c3ccccc3)c1=O)C2 (centres unmarked) [2(e), [2-(3,4,5-Triphenyl-2-oxo-2,3-dihydroimidazol-1-yl)methyl-1,2,3,4-tetrahydronaphthalen-5-yloxy] acetic acid] | 2.6 µM | 15 µM
CCc1oc(C(c2ccccc2)c2ccccc2)nc1CC1CCc2c(cccc2OCC(=O)O)C1 (centres unmarked) [Example 14, [2-(2-Diphenylmethyl-5-ethyloxazol-4-yl)methyl-1,2,3,4-tetrahydronaphthalen-5-yloxy] acetic acid] | 0.94 µM | 1.6 µM
O=C(O)COc1cccc2c1CCC(Cn1cnc(-c3ccccc3)c1-c1ccccc1)C2 (centres unmarked) [2(a), [2-(4,5-Diphenylimidazol-1-yl)methyl-1,2,3,4-tetrahydronaphthalen-5-yloxy]acetic acid] | 2.3 µM | 13 µM
O=C(O)COc1cccc2c1CCC(COc1nc(-c3ccccc3)c(-c3ccccc3)n1-c1ccccc1)C2 (centres unmarked) [2(d), [2-(1,4,5-Triphenylimidazol-2-yloxy)methyl-1,2,3,4-tetrahydronaphthalen-5-yloxy] acetic acid] | 6.8 µM | 20 µM
O=C(O)COc1cccc2c1CCC(Cc1c[nH]c(C(c3ccccc3)c3ccccc3)n1)C2 (centres unmarked) [Example 16, [2-(2-Diphenylmethylimidazol-4-yl)methyl-1,2,3,4-tetrahydronaphthalen-5-yloxy] acetic acid] | 6.8 µM | 12 µM
O=C(O)COc1cccc2c1CCC(Cc1nc(C(c3ccccc3)c3ccccc3)no1)C2 (centres unmarked) [8(a), [2-(3-Diphenylmethyl-1,2,4-oxadiazol-5-yl)methyl-1,2,3,4-tetrahydronaphthalen-5-yloxy] acetic acid] | 0.26 µM | 1 µM
O=C(O)COc1cccc2c1CCC(Cn1cnc(C(c3ccccc3)c3ccccc3)c1)C2 (centres unmarked) [2(g), [2-(4-Diphenylmethylimidazol-1-yl)methyl-1,2,3,4-tetrahydronaphthalen-5-yloxy] acetic acid] | 0.35 µM | 0.3 µM
O=C(O)COc1cccc2c1CCC(Cc1nc(C(c3ccccc3)c3ccccc3)co1)C2 (centres unmarked) [Example 10, [2-(4-Diphenylmethyloxazol-2-yl)methyl-1,2,3,4-tetrahydronaphthalen-5-yloxy] acetic acid] | 1.8 µM | 5.1 µM
O=C(O)COc1cccc2c1CCC(Cn1cc(C(c3ccccc3)c3ccccc3)cn1)C2 (centres unmarked) [Example 2, [2-(4-Diphenylmethylpyrazol-1-yl)methyl-1,2,3,4-tetrahydronaphthalen-5-yloxy]acetic acid] | 0.043 µM | 0.045 µM
